Reference: patent US20030050212A1, “Constituent of washing aid having anti-bacterial or the like component” (priority 2001, published 2003)

Columns and labels:
[1] = test system: bacteria; experiment: anti-bacterial effect of Ag ions; settings: Ag ions at 1 ppm concentration
From the text: Anti-bacterial material, for example silver ions, of high concentration dispersions towards the low concentration area. By means of a physical stirring and agitating, the anti-bacterial is adsorbed onto the fabric under cleaning.

[2] = lethal test LD 50; settings: in vivo
From the text: (§1) In actual application, 1 g of MFS 350 anti-bacterial material into 1 kg of raw material can provide a satisfactory result. Of course, the concentration can be adjusted in accordance with the requirements. In experiment, Ag ions oral test LD 50 is larger than 5000 mg1 kg, lethal test LD 50 is larger than 2000 mg1 Kg, which is relatively safe. […] The preferable metallic powder is powdery particle of nanometer in size having an excellent surface ratio. That is, under the same physical condition, a reaction surface is larger; preferably the physical size is 200 nanometer, preferably in the range of 50 to 100 nanometers.

[3] = oral test LD 50; assay type: in vivo
From the text: as §1

## [Ag+] [Ag ions]
[1]
  anti-bacterial effect: possess anti-bacterial effect
[2]
  lethal test LD 50: > 2000 mg1 Kg
[3]
  oral test LD 50: > 5000 mg1 kg
